From ChEMBL document CHEMBL1201862, “PubChem BioAssay data set” (2004) come the findings set out here.

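Compound exposure: 48 hours, 5 concentrations, 96-well plates. GI50 is the concentration that inhibits growth by half.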 The source made the active and inactive calls. Rule as the data show it: active = GI50 up to about 1.1 µM and inactive = higher. A value given as a limit tells only on which side of the number the result lay.

Common to all, as to test: growth of human tumour cells (NCI), 48 h
Test [1] concerns 786-0.
Test [2] deals with ACHN.
Test [3] deals with BT-549.
The subject of test [4] is CCRF-CEM.
The test system of test [5] is IGROV-1.
For test [6], the system named is K562.
Test [7] has as its system KM12.
Test [8] relates to MDA-MB-231.
Test [9] relates to MDA-N.
The test system of test [10] is NCI-H460.
Test [11] concerns PC-3.
Test [12] relates to SK-MEL-28.
Test [13] has as its system SK-OV-3.
Test [14] concerns T47D.
Test [15] deals with TK-10.
The subject of test [16] is U-251.
For test [17], the system named is DMS-114.
Test [18] has as its system HOP-18.
The test system of test [19] is M19-MEL.
Test [20] concerns XF498.

Turning to `CC(=O)OC1CCC2(C)C(=CCC3C2CCC2(C)C3CC3OC4(CCC(C)CN4)C(C)C32)C1` (stereo not drawn), the GI50 is 74.3 µM (inactive) in test [1]; > 100 µM (inactive) in [2]; > 100 µM (inactive) in test [3]; > 100 µM (inactive) in test [4]; > 100 µM (inactive) in test [5]; > 100 µM (inactive) in test [6]. Also, the GI50 in test [7], in [8], in [9], in test [10], in [11] and in test [12] was > 100 µM (inactive) each time. The GI50 in [13], in test [14], in test [15] and in [16] was > 100 µM (inactive) throughout.

Consider `COC1/C=C/C=C(/C)Cc2cc(O)c(Cl)c(c2)N(C)C(=O)CC(OC(=O)C(C)C)C2(C)OC2C(C)C2CC1(O)NC(=O)O2` (stereo not drawn), for which the GI50 in [3] was < 0.01 µM (active); in [4], 0.394 µM (active); in [5], < 0.01 µM (active); in [6], < 0.01 µM (active); in test [7], < 0.01 µM (active); in [8], < 0.01 µM (active). For the same compound, the GI50 in [9] is < 0.01 µM (active); in test [10], < 0.01 µM (active); in [11], < 0.01 µM (active); in test [13], < 0.01 µM (active); in test [14] it was > 100 µM (inactive); in [16] it was < 0.01 µM (active).

In the case of `CC(C)(C)c1cc(C2COC(=O)COCCOCC(=O)OCCOCCO2)cc(C(C)(C)C)c1O` (stereo not drawn), the GI50 in test [1] is 10 µM (inactive); in [2], 20.7 µM (inactive); in test [3] it was > 51.1 µM (inactive); in test [4] it was > 100 µM (inactive); in test [5] it was 72.8 µM (inactive); in test [6] it was > 100 µM (inactive). Further, the GI50 in test [7] is > 100 µM (inactive); in [8] it was 46.6 µM (inactive); in [10], 49.4 µM (inactive); in test [11], 22.4 µM (inactive); in test [12], 37.2 µM (inactive); in test [13], 32.1 µM (inactive). Further, the GI50 was 29.2 µM (inactive) in test [14], 16.5 µM (inactive) in test [15] and 36.7 µM (inactive) in test [16].

In the case of `CCC(/C=C/c1ccccc1)=N\Nc1ccc(Cl)c(Cl)c1`, the GI50 in [1] was 34.4 µM (inactive); in [2], 26.7 µM (inactive); in test [4], 62.4 µM (inactive); in test [5], 5.14 µM (inactive); in test [6] it was 32.9 µM (inactive); in [7], 29.3 µM (inactive). Besides, the GI50 in [8] was 17.8 µM (inactive); in [9], 34.3 µM (inactive); in [10], 33.3 µM (inactive); in test [11], 55.6 µM (inactive); in test [12], 48.1 µM (inactive); in [13] it was 27.4 µM (inactive). For the same compound, the results for the GI50 in [14], in [15] and in [16] were 49.9 µM (inactive), 56.6 µM (inactive) and 3.22 µM (inactive), respectively.

`Cc1ccc(C(=O)N/N=C(\N=N\c2ccc([N+](=O)[O-])cc2)c2ccc(N(CCC#N)CCC#N)cc2C)cc1`: the GI50 is 73.5 µM (inactive) in test [1]; > 100 µM (inactive) in [2]; 47.1 µM (inactive) in test [3]; 39.8 µM (inactive) in [4]; 66.8 µM (inactive) in test [5]; 66.2 µM (inactive) in test [6]. For the same compound, the GI50 was 39.5 µM (inactive) in [7]; > 100 µM (inactive) in test [8]; 78.9 µM (inactive) in test [9]; 79.3 µM (inactive) in test [10]; 50.1 µM (inactive) in [11]; 97.1 µM (inactive) in [12]. In addition, the GI50 was > 100 µM (inactive) in test [13], 26.6 µM (inactive) in test [14], > 100 µM (inactive) in [15] and > 100 µM (inactive) in [16].

Turning to `O=C1CN(c2cccc(C(F)(F)F)c2)C(=O)CN1CCN1CC(=O)N(c2cccc(C(F)(F)F)c2)CC1=O`, the GI50 in [1], in test [2], in test [4], in test [5], in test [6] and in test [7] was > 100 µM (inactive) each time. Further, the GI50 in test [8], in [9], in [10], in test [11], in [12] and in test [13] was > 100 µM (inactive) throughout. In addition, the GI50 in [14], in test [15] and in [16] was > 100 µM (inactive) each time.

For the compound `C/C(=C\C(=O)Nc1ccc2[nH]nnc2c1)Nc1ccc2[nH]nnc2c1`, the GI50 in [1], in test [2], in test [4], in test [17], in test [18] and in test [5] was > 100 µM (inactive) throughout. Besides, the GI50 in test [6], in [7], in [19], in test [10], in [12] and in test [13] was > 100 µM (inactive) each time. The GI50 in test [15] and in test [16] was > 100 µM (inactive) in each case.

For the compound `Cc1ccccc1NC(=O)C(=O)C(C1OC(=O)c2ccccc21)[N+](=O)[O-]` (stereo not drawn), the GI50 in test [2] is > 100 µM (inactive); in [4], 68.7 µM (inactive); in test [17], > 100 µM (inactive); in test [5] it was > 100 µM (inactive); in test [6], > 100 µM (inactive); in test [7] it was > 100 µM (inactive). Besides, the GI50 in test [19], in test [10], in test [12], in [13], in test [15] and in test [16] was > 100 µM (inactive) each time. For the same compound, the GI50 in test [20] is > 100 µM (inactive).

Take `O=C1OCc2cccc3c2-c2c1cccc2C(=O)OC3`: the GI50 in [17], in [18], in test [5], in test [6], in test [7] and in test [19] was > 100 µM (inactive) throughout. The GI50 in test [12], in test [13], in [15] and in [16] was > 100 µM (inactive) in each case.

Regarding `BrC1=CN2C[n+]3cc(Br)c4ccccc4c3N=C2c2ccccc21`, the GI50 was 14.8 µM (inactive) in test [2]; 16.9 µM (inactive) in test [3]; 10.7 µM (inactive) in test [4]; 7.05 µM (inactive) in test [5]; 6.34 µM (inactive) in [6]; 3.65 µM (inactive) in [7]. For the same compound, the GI50 in test [8] was 15 µM (inactive); in test [9], 6.81 µM (inactive); in test [10], 13.8 µM (inactive); in [11], 13.6 µM (inactive); in [12], 2.26 µM (inactive); in test [13], 22 µM (inactive). In addition, the values for the GI50 in [14], in test [15] and in test [16] were 4.14 µM (inactive), 26.8 µM (inactive) and 4.54 µM (inactive), respectively.

As to `N#Cc1c(Cl)c2cccnc2n2c1nc1ccccc12`, the GI50 in [1] is 1.77 µM (inactive); in [2], 1.78 µM (inactive); in test [3], 4.44 µM (inactive); in test [4], 0.9 µM (active); in test [5], 1.41 µM (inactive); in [6] it was 0.427 µM (active). Besides, the GI50 in test [7] is 6.41 µM (inactive); in test [8] it was 2.13 µM (inactive); in [9] it was 3.62 µM (inactive); in [10], 7.01 µM (inactive); in test [11], 2.41 µM (inactive); in test [12], 3.64 µM (inactive). In addition, the GI50 was 15.5 µM (inactive) in test [13], 2 µM (inactive) in test [14], 1.67 µM (inactive) in test [15] and 4.28 µM (inactive) in test [16].

Consider `O=C(c1ccccc1)N1C(=S)NC(=N/c2ccccc2)/C1=N\c1ccccc1`, for which the GI50 in test [1], in test [2], in test [4], in test [5], in [6] and in [7] was > 100 µM (inactive) throughout. In addition, the GI50 in test [8], in test [9], in [10], in test [11], in test [12] and in test [13] was > 100 µM (inactive) in each case. Moreover, the GI50 in test [14], in test [15] and in test [16] was > 100 µM (inactive) each time.

In the case of `CO/N=C(\C)c1ccc(Nc2nc3ccccc3c3occc23)cc1`, the GI50 in test [1] was 14.2 µM (inactive); in test [2], 14 µM (inactive); in [3] it was 16.8 µM (inactive); in [4], 16 µM (inactive); in test [5], 16.1 µM (inactive); in test [6] it was 20.2 µM (inactive). The GI50 is 17.6 µM (inactive) in test [7]; 12.7 µM (inactive) in [8]; 14.6 µM (inactive) in test [9]; 15.6 µM (inactive) in [10]; 16.2 µM (inactive) in test [11]; 15.9 µM (inactive) in [13]. For the same compound, the figures for the GI50 in [14], in test [15] and in test [16] were 12.6 µM (inactive), 12.4 µM (inactive) and 16.9 µM (inactive), respectively.

`COc1ccccc1-c1cc(O)c2c(C)ccnc2n1`: the GI50 in test [2] is 28.4 µM (inactive); in [3] it was 7.1 µM (inactive); in test [4], 35.6 µM (inactive); in test [5], > 100 µM (inactive); in test [6], 14.2 µM (inactive); in test [7] it was 27.7 µM (inactive). The GI50 in test [8] was 26.7 µM (inactive); in test [12], 84.3 µM (inactive); in test [13], 23 µM (inactive); in test [14] it was 16.2 µM (inactive); in test [15], > 100 µM (inactive).
